Source: article PMC11435058, “Synthesis of New Thiazole-Privileged Chalcones as Tubulin Polymerization Inhibitors with Potential Anticancer Activities” (Pharmaceuticals, 2024)
Where two headings read alike, the source gives them in different places.

How the values were obtained:
[1] = test system: A498; test: NCI-60 anticancer screen (SRB; single dose and five doses); conditions: Homo sapiens
[2] = test system: T-47D; test: as above; conditions: Homo sapiens, T47D
[3] = test system: OVCAR-5; test: as above; conditions: Homo sapiens
[4] = test system: KM12; test: as above; conditions: Homo sapiens
[5] = test system: SK-MEL-28; test: as above; conditions: Homo sapiens
[6] = test system: EKVX; test: as above; conditions: Homo sapiens
[7] = test system: HOP-92; test: as above; conditions: Homo sapiens
[8] = test system: 60 human tumor cell lines panel; test: NCI-60 anticancer screen, whole panel (means and ranges over the cell lines); assay type: cell-based; conditions: for activity at 10 µM: Homo sapiens, 48 h, dose of 10 μM
[9] = test system: CCRF-CEM; test: NCI-60 anticancer screen (SRB; single dose 10 μM and five doses); conditions: Homo sapiens
[10] = test system: MDA-MB-468; test: NCI-60 anticancer screen (SRB; single dose and five doses); assay type: cell-based, human
Procedure, shortened: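 NCI panel of about 60 human tumor cell lines treated with compound at a single concentration (10μM) for 48 h. Growth measured by SRB protein staining and expressed as percent growth of treated versus untreated control cells.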

[11] = test system: NCI/ADR-RES; test: as above; conditions: Homo sapiens
[12] = test system: MOLT-4; test: as above; conditions: Homo sapiens
[13] = test system: ACHN; test: as above; conditions: Homo sapiens
[14] = test system: PC-3; test: as above; conditions: Homo sapiens
[15] = test system: DU-145; test: as above; conditions: Homo sapiens
[16] = test system: SK-MEL-5; test: as above; conditions: Homo sapiens
[17] = test system: HCT-116; test: as above; conditions: Homo sapiens
[18] = test system: UACC-62; test: as above; conditions: Homo sapiens
[19] = test system: LOX IMVI; test: as above; conditions: Homo sapiens
[20] = test system: K-562; test: as above; conditions: Homo sapiens
[21] = test system: HL-60(TB); test: as above; conditions: Homo sapiens
[22] = test system: COLO 205; test: as above; conditions: Homo sapiens
[23] = test system: MCF7; test: as above; conditions: Homo sapiens
[24] = test system: UACC-257; test: as above; conditions: Homo sapiens
[25] = test system: HT29; test: as above; conditions: Homo sapiens
[26] = 48 h, read-out: Growth Percentage
[27] = five doses, mean graph midpoint over all cell lines

Cc1[nH]c(=S)sc1C(=O)/C=C/c1ccc([N+](=O)[O-])cc1 [2i, (E)-1-(4-Methyl-2-Thioxo-2,3-Dihydrothiazol-5-yl)-3-(4-Nitrophenyl)Prop-2-En-1-One]
GI50 ([1]; A498): 15.5 µM
activity at 10 µM ([1]; A498, 48 h, read-out: Growth Percentage, A498, dose of 10 μM): 105%
CC50 ([1]; A498, read-out: LC50): 55.3 µM
IC (TGI) ([1]; A498, read-out: TGI): 29.3 µM
GI50 [2]: 4.96 µM
activity at 10 µM [2, 26]: 44.3%
CC50 ([2]; read-out: LC50): > 100 µM
IC (TGI) ([2]; read-out: TGI): 25.7 µM
GI50 ([3]; OVCAR-5): 17.8 µM
activity at 10 µM ([3]; OVCAR-5, 48 h, read-out: Growth Percentage): 110%
CC50 ([3]; OVCAR-5, read-out: LC50): 58.2 µM
IC (TGI) ([3]; OVCAR-5, read-out: TGI): 32.2 µM
GI50 ([4]; KM12): 3.8 µM
activity at 10 µM ([4]; KM12, 48 h, read-out: Growth Percentage): -72.5%
CC50 ([4]; KM12, read-out: LC50): 40 µM
IC (TGI) ([4]; KM12, read-out: TGI): 13.6 µM
GI50 ([5]; SK-MEL-28): 13.7 µM
activity at 10 µM ([5]; SK-MEL-28, 48 h, read-out: Growth Percentage): 23.9%
CC50 ([5]; SK-MEL-28, read-out: LC50): 52.5 µM
IC (TGI) ([5]; SK-MEL-28, read-out: TGI): 26.8 µM
GI50 [6]: 16.4 µM
activity at 10 µM [6, 26]: 74.7%
CC50 ([6]; read-out: LC50): 58.1 µM
IC (TGI) ([6]; read-out: TGI): 30.9 µM
GI50 ([7]; HOP-92): 12.2 µM
activity at 10 µM ([7]; HOP-92, 48 h, read-out: Growth Percentage): 57.6%
CC50 ([7]; HOP-92, read-out: LC50): 64.4 µM
IC (TGI) ([7]; HOP-92, read-out: TGI): 28 µM
activity at 10 µM ([8]; mean over the tested cell lines, read-out: Mean growth percentage): 25.2%
activity at 10 µM ([8]; range over the cell lines, read-out: growth percentages against most of the tested cells (lowest to highest)): -86.2 to 108%
Log10GI50 _MID [8, 27]: -5.13 Molar
Log10LC50 _MID [8, 27]: -4.25 Molar
Log10TGI _MID [8, 27]: -4.62 Molar
GI50 [9]: 4.56 µM
activity at 10 µM [9, 26]: -7.25%
IC (TGI) ([9]; read-out: TGI): > 100 µM
activity at 10 µM ([10]; Homo sapiens, 48 h, MDA-MB-468, dose of 10 μM, read-out: Growth Percentage): -18.9%
GI50 ([10]; Homo sapiens, MDA-MB-468, Breast Cancer, five dose): 2.2 µM
CC50 ([10]; Homo sapiens, MDA-MB-468, Breast Cancer, five dose, read-out: LC50 (the source's name)): 31.4 µM
TGI ([10]; MDA-MB-468, Breast Cancer, five dose): 8 µM
GI50 [11]: 14.9 µM
activity at 10 µM [11, 26]: -4.45%
CC50 ([11]; read-out: LC50): 82.8 µM
IC (TGI) ([11]; read-out: TGI): 35.2 µM
GI50 ([12]; MOLT-4): 3.79 µM
activity at 10 µM ([12]; MOLT-4, 48 h, read-out: Growth Percentage): 14.2%
CC50 ([12]; MOLT-4, read-out: LC50): > 100 µM
IC (TGI) ([12]; MOLT-4, read-out: TGI): > 100 µM
GI50 [13]: 11.3 µM
activity at 10 µM [13, 26]: 3.88%
CC50 ([13]; read-out: LC50): 48.4 µM
IC (TGI) ([13]; read-out: TGI): 23.3 µM
GI50 ([14]; PC-3): 10.3 µM
activity at 10 µM ([14]; PC-3, 48 h, read-out: Growth Percentage): 51.3%
CC50 ([14]; PC-3, read-out: LC50): > 100 µM
IC (TGI) ([14]; PC-3, read-out: TGI): 37.3 µM
GI50 ([15]; DU-145): 3.41 µM
activity at 10 µM ([15]; DU-145, 48 h, read-out: Growth Percentage): 21.4%
CC50 ([15]; DU-145, read-out: LC50): 34.5 µM
IC (TGI) ([15]; DU-145, read-out: TGI): 11 µM
GI50 ([16]; SK-MEL-5): 12 µM
activity at 10 µM ([16]; SK-MEL-5, 48 h, read-out: Growth Percentage): 53.8%
CC50 ([16]; SK-MEL-5, read-out: LC50): 49.7 µM
IC (TGI) ([16]; SK-MEL-5, read-out: TGI): 24.4 µM
GI50 ([17]; HCT-116): 2.78 µM
activity at 10 µM ([17]; HCT-116, 48 h, read-out: Growth Percentage): -47.8%
CC50 ([17]; HCT-116, read-out: LC50): 44.3 µM
IC (TGI) ([17]; HCT-116, read-out: TGI): 7.89 µM
GI50 ([18]; UACC-62): 10.5 µM
activity at 10 µM ([18]; UACC-62, 48 h, read-out: Growth Percentage): 47.5%
IC (TGI) ([18]; UACC-62, read-out: TGI): 22.4 µM
GI50 [19]: 1.85 µM
activity at 10 µM [19, 26]: -86.2%
CC50 ([19]; read-out: LC50): 8.91 µM
IC (TGI) ([19]; read-out: TGI): 4.06 µM
GI50 ([20]; K562): 3.5 µM
activity at 10 µM ([20]; K562, 48 h, read-out: Growth Percentage): 12.3%
CC50 ([20]; K562, read-out: LC50): > 100 µM
IC (TGI) ([20]; K562, read-out: TGI): > 100 µM
GI50 ([21]; HL-60): 3.05 µM
activity at 10 µM ([21]; HL-60, 48 h, read-out: Growth Percentage): -5.39%
CC50 ([21]; HL-60, read-out: LC50): > 100 µM
IC (TGI) ([21]; HL-60, read-out: TGI): 16.9 µM
GI50 ([22]; COLO 205): 15.9 µM
activity at 10 µM ([22]; COLO 205, 48 h, read-out: Growth Percentage): 91.5%
CC50 ([22]; COLO 205, read-out: LC50): > 100 µM
IC (TGI) ([22]; COLO 205, read-out: TGI): 41.1 µM
GI50 ([23]; MCF7): 2.67 µM
activity at 10 µM ([23]; MCF7, 48 h, read-out: Growth Percentage): 5.51%
CC50 ([23]; MCF7, read-out: LC50): 51.3 µM
IC (TGI) ([23]; MCF7, read-out: TGI): 11.7 µM
GI50 ([24]; UACC-257): 15.1 µM
activity at 10 µM ([24]; UACC-257, 48 h, read-out: Growth Percentage): 63.3%
CC50 ([24]; UACC-257, read-out: LC50): 61.4 µM
IC (TGI) ([24]; UACC-257, read-out: TGI): 30.4 µM
GI50 ([25]; HT-29): 10.7 µM
activity at 10 µM ([25]; HT-29, 48 h, read-out: Growth Percentage): 62.8%
CC50 ([25]; HT-29, read-out: LC50): 68.7 µM
IC (TGI) ([25]; HT-29, read-out: TGI): 27.1 µM
